Reference: the supplement of paper PMC10307832

Tests used:
Test in all cases: relative viability (nuclei count vs DMSO), 5 days (fraction); higher = more cells survive
Alisertib + Tozasertib = compound: COc1cc(Nc2ncc3c(n2)-c2ccc(Cl)cc2C(c2c(F)cccc2OC)=NC3)ccc1C(=O)O [Alisertib] + Cc1cc(Nc2cc(N3CCN(C)CC3)nc(Sc3ccc(NC(=O)C4CC4)cc3)n2)n[nH]1 [Tozasertib] (partner 0.1 µM)
Procedure, shortened: (§1)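 Relative viability divides the nuclei count in treated wells by that in vehicle wells. Lung cancer cell lines were seeded in 1536-well plates, dosed by pin tool the next day, and fixed and stained after 5 days in one step with final 0.05% Triton X-100, 1% formaldehyde and 1 ug/ml Hoechst. Dosing was a single drug or a fixed anchor-drug dose plus five library-drug doses (not always all listed) in √10 steps, and values are medians of duplicate plates imaged at 4×.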

Alisertib + Crizotinib = compound: COc1cc(Nc2ncc3c(n2)-c2ccc(Cl)cc2C(c2c(F)cccc2OC)=NC3)ccc1C(=O)O [Alisertib] + C[C@@H](Oc1cc(-c2cnn(C3CCNCC3)c2)cnc1N)c1c(Cl)ccc(F)c1Cl [Crizotinib] (partner 1 µM)
Procedure, shortened: as §1

Alisertib + Decitabine = compound: COc1cc(Nc2ncc3c(n2)-c2ccc(Cl)cc2C(c2c(F)cccc2OC)=NC3)ccc1C(=O)O [Alisertib] + Nc1ncn([C@H]2C[C@H](O)[C@@H](CO)O2)c(=O)n1 [Decitabine] (partner 2 µM)
Procedure, shortened: as §1

Alisertib + Lapatinib = compound: COc1cc(Nc2ncc3c(n2)-c2ccc(Cl)cc2C(c2c(F)cccc2OC)=NC3)ccc1C(=O)O [Alisertib] + CS(=O)(=O)CCNCc1ccc(-c2ccc3ncnc(Nc4ccc(OCc5cccc(F)c5)c(Cl)c4)c3c2)o1 [Lapatinib] (partner 2 µM)
Procedure, shortened: as §1

Cell Line	relative viability (Alisertib + Tozasertib; first compound 0.005 µM)	relative viability (Alisertib + Tozasertib; first compound 0.01581 µM)	relative viability (Alisertib + Tozasertib; first compound 0.05 µM)	relative viability (Alisertib + Tozasertib; first compound 0.1581 µM)	relative viability (Alisertib + Tozasertib; first compound 0.5 µM)	relative viability (Alisertib + Crizotinib; first compound 0.005 µM)	relative viability (Alisertib + Crizotinib; first compound 0.01581 µM)	relative viability (Alisertib + Crizotinib; first compound 0.05 µM)	relative viability (Alisertib + Crizotinib; first compound 0.1581 µM)	relative viability (Alisertib + Crizotinib; first compound 0.5 µM)	relative viability (Alisertib + Decitabine; first compound 0.005 µM)	relative viability (Alisertib + Decitabine; first compound 0.01581 µM)	relative viability (Alisertib + Decitabine; first compound 0.05 µM)	relative viability (Alisertib + Decitabine; first compound 0.1581 µM)	relative viability (Alisertib + Decitabine; first compound 0.5 µM)	relative viability (Alisertib + Lapatinib; first compound 0.005 µM)	relative viability (Alisertib + Lapatinib; first compound 0.01581 µM)	relative viability (Alisertib + Lapatinib; first compound 0.05 µM)	relative viability (Alisertib + Lapatinib; first compound 0.1581 µM)	relative viability (Alisertib + Lapatinib; first compound 0.5 µM)
HOP-62	0.339	0.275	0.204	0.24	0.203	0.833	0.743	0.232	0.212	0.104	0.17	0.217	0.205	0.136	0.2	0.838	0.803	0.883	0.223	0.146
LC-2-ad	0.441	0.367	0.366	0.338	0.323	0.369	0.378	0.266	0.353	0.202	0.736	0.673	0.442	0.263	0.23	0.681	0.465	0.244	0.152	0.118
LCLC-97TM1	0.203	0.185	0.166	0.181	0.149	0.334	0.298	0.138	0.128	0.152	0.235	0.168	0.114	0.115	0.144	0.405	0.723	0.623	0.262	0.126
LK-2	0.167	0.184	0.164	0.197	0.185	0.226	0.232	0.224	0.233	0.288	0.294	0.321	0.165	0.143	0.127	0.842	0.87	0.49	0.344	0.242
LOU-NH91	0.656	0.652	0.47	0.364	0.337	0.76	0.705	0.494	0.463	0.424	0.799	0.77	0.651	0.524	0.45	0.773	0.784	0.731	0.484	0.361
LU99A	0.276	0.272	0.219	0.216	0.203	0.513	0.451	0.245	0.217	0.182	0.856	0.85	0.311	0.27	0.186	0.855	0.852	0.651	0.214	0.186
LXF-289	0.169	0.14	0.128	0.141	0.0869	0.762	0.443	0.204	0.186	0.178	0.325	0.352	0.183	0.154	0.146	0.743	0.654	0.666	0.168	0.166
NCI-H23	0.27	0.249	0.165	0.208	0.15	0.427	0.367	0.202	0.179	0.187	0.3	0.184	0.184	0.2	0.178	1.01	0.427	0.27	0.176	0.171
NCI-H322M	0.394	0.491	0.506	0.453	0.509	0.809	0.777	0.431	0.498	0.313	0.714	0.654	0.482	0.425	0.48	0.564	0.616	0.548	0.296	0.315
NCI-H358	0.093	0.121	0.0917	0.0959	0.079	0.632	0.358	0.193	0.188	0.186	0.222	0.186	0.121	0.086	0.098	0.389	0.434	0.211	0.177	0.161
NCI-H460	0.477	0.428	0.0521	0.0419	0.0268	0.847	0.731	0.0614	0.0166	0.0164	0.441	0.408	0.0826	0.0385	0.0482	0.977	0.8	0.29	0.0226	0.0161
NCI-H520	0.372	0.418	0.376	0.409	0.357	0.589	0.38	0.286	0.296	0.243	0.435	0.451	0.355	0.236	0.242	0.76	0.449	0.276	0.258	0.242
NCI-H596	0.825	0.878	0.779	0.592	0.314		0.882	0.882	0.719	0.504	1.07	1.01	1.01	0.708	0.505		1	1.16	0.63	0.433
NCI-H647	0.345	0.261	0.125	0.152	0.101	0.91	0.625	0.241	0.193	0.109	0.286	0.256	0.137	0.129	0.0775	0.801	0.62	0.275	0.085	0.058
NCI-H650	0.653	0.481	0.253	0.185	0.165	0.773	0.55	0.28	0.239	0.23	0.295	0.282	0.275	0.185	0.18	0.767	0.558	0.266	0.301	0.208
NCI-H661	0.342	0.377	0.386	0.406	0.39	1.05	1.02	0.48	0.392	0.504	0.459	0.501	0.37	0.312	0.293	0.519	0.439	0.323	0.342	0.279

Cell Line	relative viability (Alisertib + Tozasertib; first compound 0.005 µM)	relative viability (Alisertib + Tozasertib; first compound 0.01581 µM)	relative viability (Alisertib + Tozasertib; first compound 0.05 µM)	relative viability (Alisertib + Tozasertib; first compound 0.1581 µM)	relative viability (Alisertib + Tozasertib; first compound 0.5 µM)	relative viability (Alisertib + Crizotinib; first compound 0.005 µM)	relative viability (Alisertib + Crizotinib; first compound 0.01581 µM)	relative viability (Alisertib + Crizotinib; first compound 0.05 µM)	relative viability (Alisertib + Crizotinib; first compound 0.1581 µM)	relative viability (Alisertib + Crizotinib; first compound 0.5 µM)	relative viability (Alisertib + Decitabine; first compound 0.005 µM)	relative viability (Alisertib + Decitabine; first compound 0.01581 µM)	relative viability (Alisertib + Decitabine; first compound 0.05 µM)	relative viability (Alisertib + Decitabine; first compound 0.1581 µM)	relative viability (Alisertib + Decitabine; first compound 0.5 µM)	relative viability (Alisertib + Lapatinib; first compound 0.005 µM)	relative viability (Alisertib + Lapatinib; first compound 0.01581 µM)	relative viability (Alisertib + Lapatinib; first compound 0.05 µM)	relative viability (Alisertib + Lapatinib; first compound 0.1581 µM)	relative viability (Alisertib + Lapatinib; first compound 0.5 µM)
NCI-H727	0.411	0.598	0.486	0.494	0.404	0.691	0.675	0.361	0.315	0.267	0.843	0.892	0.81	0.617	0.537	0.75	0.68	0.497	0.384	0.314
NCI-H838	0.272	0.262	0.231	0.195	0.201	0.821	0.727	0.281	0.218	0.186	0.402	0.334	0.253	0.213	0.198	0.827	0.673	0.391	0.257	0.164
NCI-H1355	0.53	0.462	0.297	0.192	0.217	1.08	0.906	0.737	0.215	0.186	0.347	0.358	0.229	0.177	0.154	0.914	0.837	0.671	0.258	0.184
NCI-H1437	0.38	0.372	0.297	0.269	0.195	0.855	0.878	0.45	0.338	0.141	0.5	0.519	0.439	0.27	0.209	0.729	0.576	0.45	0.218	0.13
NCI-H1650	0.46	0.394	0.2	0.246	0.202	0.975	0.71	0.359	0.255	0.276	0.336	0.326	0.2	0.162	0.189	0.768	0.222	0.203	0.175	0.228
NCI-H1651	0.492	0.617	0.273	0.269	0.205	0.898	0.807	0.41	0.204	0.256	0.557	0.433	0.339	0.182	0.161	0.716	0.589	0.434	0.192	0.193
NCI-H1666	0.625	0.412	0.365	0.391	0.355	0.934	0.729	0.474	0.349	0.363	0.785	0.63	0.615	0.537	0.441	0.672	0.451	0.436	0.28	0.236
NCI-H1734	0.262	0.231	0.22	0.195	0.188	0.669	0.523	0.357	0.227	0.155	0.497	0.466	0.324	0.24	0.177	0.905	0.746	0.404	0.264	0.175
NCI-H1755	0.6	0.569	0.422	0.386	0.311	0.853	0.73	0.415	0.366	0.294	0.643	0.673	0.543	0.413	0.348	0.946	0.945	0.833	0.299	0.316
NCI-H1915	0.404	0.272	0.241	0.193	0.179	0.777	0.721	0.307	0.317	0.192	0.257	0.249	0.197	0.198	0.176	0.787	0.821	0.606	0.305	0.253
NCI-H1944	0.242	0.239	0.258	0.195	0.187	1.05	1.04	0.504	0.386	0.222	0.401	0.436	0.324	0.266	0.186	0.769	0.829	0.764	0.36	0.188
NCI-H1975	0.695	0.65	0.336	0.212	0.124	0.945	0.728	0.301	0.27	0.193	0.32	0.359	0.142	0.191	0.153	0.78	0.808	0.457	0.234	0.174
NCI-H1993	0.572	0.542	0.536	0.524	0.512	0.564	0.744	0.6	0.573	0.527	0.356	0.561	0.539	0.383	0.356	0.81	0.694	0.537	0.539	0.5
NCI-H2009	0.732	0.663	0.427	0.336	0.22	0.927	0.916	0.453	0.238	0.175	0.338	0.388	0.292	0.194	0.168	0.863	0.76	0.355	0.255	0.319
NCI-H2023	0.419	0.368	0.263	0.215	0.0951	0.721	0.64	0.345	0.142	0.112	0.252	0.193	0.145	0.109	0.0849	0.848	0.602	0.41	0.135	0.0899
NCI-H2085	0.723	0.669	0.526	0.476	0.394	0.757	0.693	0.33	0.391	0.388	0.565	0.544	0.319	0.396	0.332	0.752	0.692	0.422	0.306	0.323
